Where a SMILES comes first, the peptide text is derived from it. [ ]: non-standard residue; d: D form. Nle = CCCC[C@H](N)C(=O)O
What was measured:
[1] = system: T-cell lymphoma invasion and metastasis-inducing protein 1 (Tiam1)
RMF cells = assay: Senescence induction and SA-β-Gal staining; format: cell-based, human; details: repeated 3-5 days later, seven days after induction
Experimental: After treatment, cells were rinsed twice with phosphate-buffered saline (PBS) and left to recover in culture medium. […] For each treatment, senescence induction was repeated 3-5 days later to prevent recovery and cell cycle re-entry. Cells were sub-cultured for at least 7 days and senescence induction was confirmed by SA-β-gal staining.
SA-β-Gal staining was conducted as described previously [Dimri, G P, et al., 1995, Proc Natl Acad Sci USA 92:9363-7]. Briefly, cells were washed twice in PBS and fixed 5 minutes in 2% formaldehyde/0.2% glutaraldehyde, washed again, and incubated at 37° C. overnight with fresh senescence-associated β-Gal (SA-β-Gal) stain solution: 1 mg 5-bromo-4-chloro-3-indolyl-β-D-galactoside (X-Gal) per ml (stock=20 mg in dimethylformamide per ml)/40 mM citric acid/sodium phosphate, pH 6.0/5 mM potassium ferrocyanide/5 mM potassium ferricyanide/150 mM NaCl/2 mM MgCl2. Cells with positive staining were observed and counted under a light microscope (Nikon, Eclipse TS100).

HMECs = assay: Spheroid co-culture in Matrigel with senescent RMFs; format: cell-based, human; details: RMFs exposed to the agent before co-culture; preliminary examples
Experimental: (§1) As described previously [Xu K, et al., 2010, Oncogene 29:6533-42], Matrigel (BD Biosciences) was diluted in 1:1 ratio with ice-cold HMEC medium, and 50 μl of the mixture was placed mid-well in a 24-well plate. After incubating for 5 min in 37° C., an additional 250 μl of Matrigel:medium mixture was added into the well and incubated for another 30 min. A 1:1 mixture of HMEC and RMF cells (0.5×10^5 cells each) in 0.5 ml of HMEC medium was gently dropped onto the top of the solidified gel. Cells were cultured for two weeks and medium was changed every two or three days. Spheroid formation and projection growth were monitored daily under light microscopy. Images were obtained on a Diaphot Software Version 4.1 (Diagnostic Instruments Inc).
as §1, with “and 50 ul of the” for “and 50 μl of the”, “another 30 min A 1:1” for “another 30 min. A 1:1”, “light microscopy. […]” for “light microscopy. Images were obtained on a Diaphot Software Version 4.1 (Diagnostic Instruments Inc).”

Tiam1 = assay: In vitro Tiam1 cleavage assay; format: biochemical, human; details: immunoblot
Experimental: HEK293T cells were transiently transfected with full-length Tiam1 cDNA as previously described (Buchsbaum et al., 2002). Forty-eight hours after transfection, cells were washed once with PBS and lysed in SP buffer as described above. Lysates were cleared of unbroken cells and debris by centrifugation at 10,000×g for 10 minutes. Aliquots of cleared lysates were reserved for immunoblots; the remainder were incubated with protein A-Sepharose beads (Pharmacia) and anti-Tiam1 antibody (diluted according to the manufacturer's instructions) or equal amounts of polyclonal rabbit IgG (Santa Cruz) for 2 h at 4° C. with constant agitation. Immunoprecipitates were washed twice with ice-cold SP buffer and once with Reaction Buffer (20 mM Tris-HCl, pH 7.5, 10 mM DTT, 6 mM CaCl2) in the presence of protease inhibitors (1 mM PMSF and 1.7 μg/ml aprotinin) prior to the cleavage reaction.
Pre-senescent cells were maintained in culture as described above. Senescence was induced with 800 uM H2O2 as described above, and confirmed by SA-β gal staining. Pre-senescent and senescent RMFs were washed with cold PBS, pelleted, and resuspended in extraction buffer (10 mM HEPES pH 7.0, 2 mM MgCl2, 50 mM NaCl, 1 mM DTT) containing inhibitors (17 μg/ml aprotinin, 10 μg/ml leupepsin, 100 μM NaV, 3.3 mM PMSF). Cells were lysed by freeze-thaw cycles in ethanol-liquid nitrogen/37° C. water bath. Extracts were centrifuged at 10,000 g for 15 min at 4° C., and resulting supernatants were used as the cytosolic fraction. Protein concentration was determined by BCA protein assay (Bio-Rad).
Immunoprecipitated proteins were incubated with extracted lysates from pre-senescent or senescent cells in Reaction Buffer for 2 hours at 37° C. with constant agitation. […] Samples were resolved by SDS-PAGE and immunoblotting as described.

Sequence of T-cell lymphoma invasion and metastasis-inducing protein 1 (Tiam1) (chain, as listed by the source): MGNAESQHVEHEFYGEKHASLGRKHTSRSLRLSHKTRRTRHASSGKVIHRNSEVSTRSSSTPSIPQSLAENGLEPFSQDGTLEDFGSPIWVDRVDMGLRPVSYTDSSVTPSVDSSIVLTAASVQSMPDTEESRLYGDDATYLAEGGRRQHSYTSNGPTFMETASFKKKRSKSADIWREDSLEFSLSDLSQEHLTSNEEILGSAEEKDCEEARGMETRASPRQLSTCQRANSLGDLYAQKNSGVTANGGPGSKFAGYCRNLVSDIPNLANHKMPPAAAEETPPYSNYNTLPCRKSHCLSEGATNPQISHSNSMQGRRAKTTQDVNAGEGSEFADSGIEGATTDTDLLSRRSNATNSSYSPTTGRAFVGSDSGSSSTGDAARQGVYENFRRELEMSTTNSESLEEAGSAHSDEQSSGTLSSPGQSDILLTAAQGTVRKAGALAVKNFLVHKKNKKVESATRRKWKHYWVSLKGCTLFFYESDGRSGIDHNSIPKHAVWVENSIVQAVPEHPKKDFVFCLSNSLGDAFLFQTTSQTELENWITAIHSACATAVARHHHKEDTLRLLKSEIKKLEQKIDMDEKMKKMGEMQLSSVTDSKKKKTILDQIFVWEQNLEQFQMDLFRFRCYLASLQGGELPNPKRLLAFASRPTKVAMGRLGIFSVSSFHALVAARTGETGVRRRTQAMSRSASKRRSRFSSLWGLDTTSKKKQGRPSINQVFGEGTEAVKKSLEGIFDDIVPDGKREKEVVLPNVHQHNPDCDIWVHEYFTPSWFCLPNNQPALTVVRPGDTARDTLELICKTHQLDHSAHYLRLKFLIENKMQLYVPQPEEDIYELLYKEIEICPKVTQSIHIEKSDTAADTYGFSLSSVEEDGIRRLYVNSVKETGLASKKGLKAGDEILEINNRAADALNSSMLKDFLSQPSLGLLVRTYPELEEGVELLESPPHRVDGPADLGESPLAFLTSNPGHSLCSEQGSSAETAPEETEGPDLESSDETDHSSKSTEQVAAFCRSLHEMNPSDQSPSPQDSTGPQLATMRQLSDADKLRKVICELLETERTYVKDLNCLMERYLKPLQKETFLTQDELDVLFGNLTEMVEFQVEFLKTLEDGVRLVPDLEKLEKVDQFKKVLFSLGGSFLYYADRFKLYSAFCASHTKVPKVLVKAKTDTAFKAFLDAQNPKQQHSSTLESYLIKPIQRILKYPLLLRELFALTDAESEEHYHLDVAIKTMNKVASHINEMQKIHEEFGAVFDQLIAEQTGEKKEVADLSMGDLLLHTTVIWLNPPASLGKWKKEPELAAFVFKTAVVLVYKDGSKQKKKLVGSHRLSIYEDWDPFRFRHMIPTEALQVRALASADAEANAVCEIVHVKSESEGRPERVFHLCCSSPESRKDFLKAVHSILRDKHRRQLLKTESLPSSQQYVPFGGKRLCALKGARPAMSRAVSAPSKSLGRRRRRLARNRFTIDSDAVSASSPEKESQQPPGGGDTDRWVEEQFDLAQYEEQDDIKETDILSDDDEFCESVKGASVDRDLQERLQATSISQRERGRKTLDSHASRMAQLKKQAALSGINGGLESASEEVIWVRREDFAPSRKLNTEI

calpain proteases
degradation of immunoprecipitated Tiam1 (in vitro Tiam1 cleavage assay, immunoblot) [1]: Pre-incubation of cell lysates with either the calpain inhibitor ALLN or the calcium-chelator EDTA significantly inhibited degradation of the immobilized Tiam1 induced by senescent lysates

bleomycin
induction of senescence (morphology, SA β-gal staining) (RMF cells; 50 μg/ml bleomycin for 24 hours): had taken on a morphologic appearance characteristic of senescence | HMEC invasiveness into matrix on co-culture with RMFs rendered senescent by the agent (HMECs): increased invasiveness into the surrounding matrix

OO [H2O2, hydrogen peroxide]
induction of senescence (morphology, SA β-gal staining) (RMF cells; 800 μmol/L H2O2 for 2 hours): had taken on a morphologic appearance characteristic of senescence | HMEC invasiveness into matrix on co-culture with RMFs rendered senescent by the agent (HMECs): increased invasiveness into the surrounding matrix

CCCC[C@@H](C=O)NC(=O)[C@H](CC(C)C)NC(=O)[C@H](CC(C)C)NC(C)=O [ALLN] (Ac-Leu-Leu-[Nle]-aldehyde)
degradation of immobilized Tiam1 induced by senescent lysates (Tiam1; lysates pre-incubated on ice 30 minutes with 50 μM ALLN): significantly inhibited degradation of the immobilized Tiam1

O=C(O)CN(CCN(CC(=O)O)CC(=O)O)CC(=O)O [EDTA]
degradation of immobilized Tiam1 induced by senescent lysates (Tiam1; lysates pre-incubated on ice 30 minutes with 1 mM EDTA): significantly inhibited degradation of the immobilized Tiam1

CC(C)C[C@H](NC(=O)[C@H](Cc1ccccc1)NC(=O)c1cnccn1)B(O)O [bortezomib]
degradation of immobilized Tiam1 by senescent lysates (Tiam1; lysates pre-incubated with 5 nM bortezomib at 37° C. for 24 hours): did not prevent degradation of immobilized Tiam1

Source: patent US20130137102A1, “Methods and kits for modulating tumor invasiveness and metastatic potential” (TUFTS MEDICAL CENTER, INC., priority 2010, published 2013)
